The subject of the assay is MV-4-11 cells. The experiment in a line: Gene expression microarray analysis (Affymetrix PrimeView) and GSEA. The assay is classed as cell-based, human. More on the design: RFU PODN (11730768_x_at) / Fold change /veh PODN (11730768_x_at) / RFU LINC00158 (11744669_a_at) / Fold change /veh LINC00158 (11744669_a_at) / RFU DUSP10 (11751237_a_at) / Fold change /veh DUSP10 (11751237_a_at) / RFU ID3 (11757404_x_at) / Fold change /veh ID3 (11757404_x_at) / RFU PLEKHG5 (11737974_s_at) / Fold change /veh PLEKHG5 (11737974_s_at) / RFU LRRC4B (11730491_at) / Fold change /veh LRRC4B (11730491_at) / RFU GIMAP4 (11747438_a_at) / Fold change /veh GIMAP4 (11747438_a_at) / RFU KRT8 (11758183_x_at) / Fold change /veh KRT8 (11758183_x_at) / RFU CNN1 (11734310_a_at) / Fold change /veh CNN1 (11734310_a_at) / RFU VPS37D (11726825_at) / Fold change /veh VPS37D (11726825_at) / RFU C10orf10 (11716522_x_at) / Fold change /veh C10orf10 (11716522_x_at) / RFU KIR2DL2 /// KIR2DL4 /// KIR2DL5A /// KIR2DL5B /// KIR2DS1 /// KIR2DS2 /// KIR2DS3 /// KIR2DS4 /// KIR3DL3 /// KIR3DL3 /// KIR3DS1 (11738374_at) / Fold change /veh KIR2DL2 /// KIR2DL4 /// KIR2DL5A /// KIR2DL5B /// KIR2DS1 /// KIR2DS2 /// KIR2DS3 /// KIR2DS4 /// KIR3DL3 /// KIR3DL3 /// KIR3DS1 (11738374_at) / RFU C1QL1 (11718748_at) / Fold change /veh C1QL1 (11718748_at) / RFU TMPRSS4 (11747572_a_at) / Fold change /veh TMPRSS4 (11747572_a_at) / RFU HAMP (11756126_x_at) / Fold change /veh HAMP (11756126_x_at) / RFU RNFT2 (11725882_a_at) / Fold change /veh RNFT2 (11725882_a_at) / RFU NR4A2 (11747474_a_at) / Fold change /veh NR4A2 (11747474_a_at) / RFU ABCC12 (11746883_a_at) / Fold change /veh ABCC12 (11746883_a_at) / RFU TMEM136 (11760407_x_at) / Fold change /veh TMEM136 (11760407_x_at) / RFU CLDN22 /// WWC2 (11732394_at) / Fold change /veh CLDN22 /// WWC2 (11732394_at) / RFU HLA-DPB1 (11760878_x_at) / Fold change /veh HLA-DPB1 (11760878_x_at) / RFU SPINT1 (11716480_a_at) / Fold change /veh SPINT1 (11716480_a_at) / RFU GAP43 (11754022_s_at) / Fold change /veh GAP43 (11754022_s_at) / RFU A4GNT (11735810_at) / Fold change /veh A4GNT (11735810_at) / RFU PRB3 (11715151_x_at) / Fold change /veh PRB3 (11715151_x_at) / RFU TUBB4B (11761932_at) / Fold change /veh TUBB4B (11761932_at) / RFU CAPN14 (11732068_a_at) / Fold change /veh CAPN14 (11732068_a_at) / RFU TMCC2 (11721928_a_at) / Fold change /veh TMCC2 (11721928_a_at) / RFU IRGQ (11745062_a_at) / Fold change /veh IRGQ (11745062_a_at) / RFU FAM174B (11720279_a_at) / Fold change /veh FAM174B (11720279_a_at) / RFU TMPRSS4 (11748680_a_at) / Fold change /veh TMPRSS4 (11748680_a_at) / RFU FAM212B (11763350_a_at) / Fold change /veh FAM212B (11763350_a_at) / RFU PLEKHG5 (11743358_a_at) / Fold change /veh PLEKHG5 (11743358_a_at) / RFU ZSCAN30 (11745921_a_at) / Fold change /veh ZSCAN30 (11745921_a_at) / RFU CMKLR1 (11741424_a_at) / Fold change /veh CMKLR1 (11741424_a_at) / RFU LOC101060620 /// MAPK8IP1 (11723275_at) / Fold change /veh LOC101060620 /// MAPK8IP1 (11723275_at) / RFU SPTSSB (11747773_x_at) / Fold change /veh SPTSSB (11747773_x_at) / RFU PRSS12 (11739890_at) / Fold change /veh PRSS12 (11739890_at) / RFU BIN1 (11741810_x_at) / Fold change /veh BIN1 (11741810_x_at) / RFU WNT11 (11732464_a_at) / Fold change /veh WNT11 (11732464_a_at) / RFU C10orf10 (11716521_a_at) / Fold change /veh C10orf10 (11716521_a_at) / RFU C5orf56 (11738089_at) / Fold change /veh C5orf56 (11738089_at) / RFU CYB561 (11721691_x_at) / Fold change /veh CYB561 (11721691_x_at) / RFU ANKRD19P (11752326_a_at) / Fold change /veh ANKRD19P (11752326_a_at) / RFU OR2T12 /// OR2T33 /// OR2T8 (11738714_s_at) / Fold change /veh OR2T12 /// OR2T33 /// OR2T8 (11738714_s_at) / RFU VCAN (11748164_a_at) / Fold change /veh VCAN (11748164_a_at) / RFU JSRP1 (11732532_at) / Fold change /veh JSRP1 (11732532_at) / RFU KRTAP10-11 (11738290_x_at) / Fold change /veh KRTAP10-11 (11738290_x_at) / RFU MYO3A (11730013_a_at) / Fold change /veh MYO3A (11730013_a_at) / RFU EBF3 (11725865_a_at) / Fold change /veh EBF3 (11725865_a_at) / RFU CAMK2N1 (11719241_x_at) / Fold change /veh CAMK2N1 (11719241_x_at) / RFU C5orf56 (11738088_a_at) / Fold change /veh C5orf56 (11738088_a_at) / RFU OLFML3 (11715873_a_at) / Fold change /veh OLFML3 (11715873_a_at) / RFU LOC100653217 /// NTM (11731650_a_at) / Fold change /veh LOC100653217 /// NTM (11731650_a_at) / RFU MAPK11 (11762145_a_at) / Fold change /veh MAPK11 (11762145_a_at) / RFU FIZ1 (11724087_x_at) / Fold change /veh FIZ1 (11724087_x_at) / RFU OASL (11726364_x_at) / Fold change /veh OASL (11726364_x_at) / RFU SOX15 (11748057_x_at) / Fold change /veh SOX15 (11748057_x_at) / RFU CD79A (11719716_a_at) / Fold change /veh CD79A (11719716_a_at) / RFU HIST1H1D (11736915_at) / Fold change /veh HIST1H1D (11736915_at) / RFU CASKIN2 (11723855_a_at) / Fold change /veh CASKIN2 (11723855_a_at) / RFU LOC730098 (11760151_x_at) / Fold change /veh LOC730098 (11760151_x_at) / RFU OR4N2 (11742367_at) / Fold change /veh OR4N2 (11742367_at) / RFU PRRT2 (11749266_a_at) / Fold change /veh PRRT2 (11749266_a_at) / RFU SNX32 (11753110_a_at) / Fold change /veh SNX32 (11753110_a_at) / RFU CDHR5 (11726645_a_at) / Fold change /veh CDHR5 (11726645_a_at) / RFU RCAN1 (11760418_a_at) / Fold change /veh RCAN1 (11760418_a_at) / RFU FAM167A (11723789_a_at) / Fold change /veh FAM167A (11723789_a_at) / RFU FAM26E (11764081_at) / Fold change /veh FAM26E (11764081_at) / RFU ISYNA1 (11749810_s_at) / Fold change /veh ISYNA1 (11749810_s_at) / RFU ACY1 (11761880_at) / Fold change /veh ACY1 (11761880_at) / RFU 11764098_at / Fold change /veh 11764098_at / RFU SAMD14 (11745864_x_at) / Fold change /veh SAMD14 (11745864_x_at) / RFU NPB (11741838_a_at) / Fold change /veh NPB (11741838_a_at) / RFU TMPRSS6 (11731388_a_at) / Fold change /veh TMPRSS6 (11731388_a_at) / RFU KRTAP10-2 (11738614_at) / Fold change /veh KRTAP10-2 (11738614_at) / RFU ARHGAP8 /// PRR5-ARHGAP8 (11727945_x_at) / Fold change /veh ARHGAP8 /// PRR5-ARHGAP8 (11727945_x_at) / RFU KRTAP5-7 /// NADSYN1 (11734609_at) / Fold change /veh KRTAP5-7 /// NADSYN1 (11734609_at) / RFU RASL12 (11751679_a_at) / Fold change /veh RASL12 (11751679_a_at) / RFU CDKN2B (11736163_a_at) / Fold change /veh CDKN2B (11736163_a_at) / RFU PRF1 (11729649_at) / Fold change /veh PRF1 (11729649_at) / RFU, ZNF638 /// ZNF638-IT1 / Fold change vs veh, ZNF638 /// ZNF638-IT1 / RFU, PANK3 / Fold change vs veh, PANK3 / RFU, SH3YL1 / Fold change vs veh, SH3YL1 / RFU, ZEB2 / Fold change vs veh, ZEB2 / RFU, NRIP1 / Fold change vs veh, NRIP1 / RFU, PTTG1IP / Fold change vs veh, PTTG1IP / RFU, CAPN2 / Fold change vs veh, CAPN2 / RFU, MED14 / Fold change vs veh, MED14 / RFU, SNORA58 / Fold change vs veh, SNORA58 / RFU, C1orf63 / Fold change vs veh, C1orf63 / RFU, LRRFIP1 / Fold change vs veh, LRRFIP1 / RFU, NDUFAF7 / Fold change vs veh, NDUFAF7 / RFU, SLC12A2 / Fold change vs veh, SLC12A2 / RFU, IBTK / Fold change vs veh, IBTK / RFU, ESF1 / Fold change vs veh, ESF1 / Fold change vs veh, TMEM50B / RFU, TAOK1 / Fold change vs veh, TAOK1 / RFU, ACBD3 / Fold change vs veh, ACBD3 / RFU, TMA16 / Fold change vs veh, TMA16 / RFU, RWDD3 / Fold change vs veh, RWDD3 / RFU, BCAT1 / Fold change vs veh, BCAT1 / RFU, EDEM3 / Fold change vs veh, EDEM3 / RFU, TMEM33 / Fold change vs veh, TMEM33 / RFU, WDR75 / Fold change vs veh, WDR75 / RFU, AHCTF1 / Fold change vs veh, AHCTF1 / RFU, TFRC / Fold change vs veh, TFRC / RFU, ZDHHC17 / Fold change vs veh, ZDHHC17 / RFU, NOM1 / Fold change vs veh, NOM1 / RFU, ARL8B / Fold change vs veh, ARL8B / RFU, ZBTB11 / Fold change vs veh, ZBTB11 / RFU, TAMM41 / Fold change vs veh, TAMM41 / RFU, KIAA1704 /// LOC100996395 / Fold change vs veh, KIAA1704 /// LOC100996395 / RFU, ING1 / Fold change vs veh, ING1 / RFU, TRMT61B / Fold change vs veh, TRMT61B / RFU, FUBP3 / Fold change vs veh, FUBP3 / RFU, TP53 / Fold change vs veh, TP53 / RFU, TNKS2 / Fold change vs veh, TNKS2 / RFU, ZFP14 / Fold change vs veh, ZFP14 / RFU, ACTR2 / Fold change vs veh, ACTR2 / RFU, PPP3R1 / Fold change vs veh, PPP3R1 / RFU, PIK3R1 / Fold change vs veh, PIK3R1 / RFU, HNRNPA1 / Fold change vs veh, HNRNPA1 / RFU, RNF170 / Fold change vs veh, RNF170 / RFU, ZNF28 / Fold change vs veh, ZNF28 / RFU, RNGTT / Fold change vs veh, RNGTT / RFU, OGT / Fold change vs veh, OGT / RFU, BRD1 / Fold change vs veh, BRD1 / RFU, MARS / Fold change vs veh, MARS / RFU, ZNF655 / Fold change vs veh, ZNF655 / RFU, FAHD1 / Fold change vs veh, FAHD1 / RFU, BDP1 / Fold change vs veh, BDP1 / RFU, LRRCC1 / Fold change vs veh, LRRCC1 / RFU, ARID1A / Fold change vs veh, ARID1A / RFU, ZNF146 / Fold change vs veh, ZNF146 / RFU, ZNF330 / Fold change vs veh, ZNF330 / RFU, GPN3 / Fold change vs veh, GPN3 / RFU, C9orf123 / Fold change vs veh, C9orf123 / RFU, N4BP2L2 / Fold change vs veh, N4BP2L2 / RFU, ARFIP1 / Fold change vs veh, ARFIP1 / RFU, FAM179B / Fold change vs veh, FAM179B / RFU, BCL10 / Fold change vs veh, BCL10 / RFU, UHRF1BP1L / Fold change vs veh, UHRF1BP1L / RFU, BET1 / Fold change vs veh, BET1 / RFU, CNOT2 / Fold change vs veh, CNOT2 / RFU, ZNF268 / Fold change vs veh, ZNF268 / Fold change vs veh, ZNF507 / RFU, DGCR2 / Fold change vs veh, DGCR2 / RFU, WDSUB1 / Fold change vs veh, WDSUB1 / Fold change vs veh, HSP90B1 /// MIR3652 / RFU, ADSS / Fold change vs veh, ADSS / RFU, GK / Fold change vs veh, GK / RFU, ZNF148 / Fold change vs veh, ZNF148 / RFU, TAF9 / Fold change vs veh, TAF9 / RFU, SLC1A5 / Fold change vs veh, SLC1A5 / RFU, SLMO2 / Fold change vs veh, SLMO2 / RFU, ABCC4 / Fold change vs veh, ABCC4 / RFU, LOC101060439 /// RAP1B / Fold change vs veh, LOC101060439 /// RAP1B / RFU, RFX7 / Fold change vs veh, RFX7 / RFU, GTPBP10 / Fold change vs veh, GTPBP10 / RFU, CNEP1R1 / Fold change vs veh, CNEP1R1 / RFU, BIVM-ERCC5 /// ERCC5 / Fold change vs veh, BIVM-ERCC5 /// ERCC5 / RFU, ILF3 / Fold change vs veh, ILF3 / RFU 11762660_at / Fold change /veh 11762660_at / RFU VCAN (11757783_s_at) / Fold change /veh VCAN (11757783_s_at) / RFU DDX43 (11728927_at) / Fold change /veh DDX43 (11728927_at) / RFU KRT8 (11758188_x_at) / Fold change /veh KRT8 (11758188_x_at) / RFU NKD1 (11759106_at) / Fold change /veh NKD1 (11759106_at) / RFU SRD5A1 (11742802_a_at) / Fold change /veh SRD5A1 (11742802_a_at) / RFU TPSAB1 /// TPSB2 (11721975_s_at) / Fold change /veh TPSAB1 /// TPSB2 (11721975_s_at) / RFU GSTM3 (11746129_a_at) / Fold change /veh GSTM3 (11746129_a_at) / RFU IL23R (11737362_x_at) / Fold change /veh IL23R (11737362_x_at) / RFU TMEM51 (11727254_a_at) / Fold change /veh TMEM51 (11727254_a_at) / RFU PIWIL2 (11732686_x_at) / Fold change /veh PIWIL2 (11732686_x_at) / RFU ORM1 (11744905_x_at) / Fold change /veh ORM1 (11744905_x_at) / RFU CCDC152 (11743942_at) / Fold change /veh CCDC152 (11743942_at) / RFU ECM1 (11717891_a_at) / Fold change /veh ECM1 (11717891_a_at) / RFU IL23R (11748794_a_at) / Fold change /veh IL23R (11748794_a_at) / RFU TNFAIP8L3 (11732012_x_at) / Fold change /veh TNFAIP8L3 (11732012_x_at) / RFU MBOAT4 (11741988_at) / Fold change /veh MBOAT4 (11741988_at) / RFU 11764193_at / Fold change /veh 11764193_at / RFU TMEM53 (11763286_at) / Fold change /veh TMEM53 (11763286_at) / RFU MAGEB2 (11727129_at) / Fold change /veh MAGEB2 (11727129_at) / RFU TMEM200A (11744735_a_at) / Fold change /veh TMEM200A (11744735_a_at) / RFU CCDC152 (11751479_a_at) / Fold change /veh CCDC152 (11751479_a_at) / RFU FAM211A (11726209_a_at) / Fold change /veh FAM211A (11726209_a_at) / RFU RGS16 (11746705_a_at) / Fold change /veh RGS16 (11746705_a_at) / RFU VCAN (11755009_s_at) / Fold change /veh VCAN (11755009_s_at) / RFU RHOB (11743442_s_at) / Fold change /veh RHOB (11743442_s_at) / RFU RGS16 (11720943_a_at) / Fold change /veh RGS16 (11720943_a_at) / RFU RGS16 (11720944_at) / Fold change /veh RGS16 (11720944_at) / RFU, VPS4B / Fold change vs veh, VPS4B / RFU, CREB1 / Fold change vs veh, CREB1 / RFU, DNAJC13 / Fold change vs veh, DNAJC13 / RFU, GNAQ / Fold change vs veh, GNAQ / RFU, CDK5R1 / Fold change vs veh, CDK5R1 / RFU, ZRANB3 / Fold change vs veh, ZRANB3 / RFU, CUL4A / Fold change vs veh, CUL4A / RFU, CCNY / Fold change vs veh, CCNY / RFU, UFL1 / Fold change vs veh, UFL1 / RFU, COG3 / Fold change vs veh, COG3 / RFU, DIAPH2 / Fold change vs veh, DIAPH2 / RFU, SKA2 / Fold change vs veh, SKA2 / RFU, AFF3 / Fold change vs veh, AFF3 / RFU, LMF1 / Fold change vs veh, LMF1 / RFU, IPO11 / Fold change vs veh, IPO11 / RFU, DFFB / Fold change vs veh, DFFB / RFU, FOXP1 / Fold change vs veh, FOXP1 / RFU, CARD8 / Fold change vs veh, CARD8 / RFU, STRN3 / Fold change vs veh, STRN3 / RFU, ADK / Fold change vs veh, ADK / RFU, RASSF2 / Fold change vs veh, RASSF2 / RFU, WIPF1 / Fold change vs veh, WIPF1 / RFU, LARP1B / Fold change vs veh, LARP1B / RFU, RASA1 / Fold change vs veh, RASA1 / RFU, RB1 / Fold change vs veh, RB1 / RFU, PPFIA1 / Fold change vs veh, PPFIA1 / RFU, MAT2A / Fold change vs veh, MAT2A / RFU, CCT5 / Fold change vs veh, CCT5 / RFU, WDR92 / Fold change vs veh, WDR92 / RFU, CUX1 / Fold change vs veh, CUX1 / RFU, TTC7A / Fold change vs veh, TTC7A / RFU, TMEM135 / Fold change vs veh, TMEM135 / RFU, DEPTOR / Fold change vs veh, DEPTOR / RFU, CPM / Fold change vs veh, CPM / RFU, DNAJB6 / Fold change vs veh, DNAJB6 / RFU, CACNA2D3 / Fold change vs veh, CACNA2D3 / RFU, DTX4 / Fold change vs veh, DTX4 / RFU, TFCP2 / Fold change vs veh, TFCP2 / RFU, GMCL1 /// GMCL1P1 / Fold change vs veh, GMCL1 /// GMCL1P1 / RFU, AEBP2 / Fold change vs veh, AEBP2 / RFU, SNHG1 /// SNORD22 /// SNORD25 /// SNORD26 /// SNORD27 /// SNORD28 /// SNORD29 /// SNORD31 / Fold change vs veh, SNHG1 /// SNORD22 /// SNORD25 /// SNORD26 /// SNORD27 /// SNORD28 /// SNORD29 /// SNORD31 / Fold change (Aza/veh), C12orf56 (ProbeSet 11735607_a_at) / Fold change (ACY-1035/veh), C12orf56 (ProbeSet 11735607_a_at) / Fold change (Aza/veh), FGFR1OP (ProbeSet 11751329_s_at) / Fold change (ACY-1035/veh), FGFR1OP (ProbeSet 11751329_s_at) / Fold change (Aza/veh), VPS36 (ProbeSet 11739960_a_at) / Fold change (ACY-1035/veh), VPS36 (ProbeSet 11739960_a_at) / RFU SYPL1 (11715823_x_at) / Fold change /veh SYPL1 (11715823_x_at) / RFU IGFBP7 (11715501_s_at) / Fold change /veh IGFBP7 (11715501_s_at) / RFU REEP3 (11722064_at) / Fold change /veh REEP3 (11722064_at) / RFU IGLL1 (11728026_x_at) / Fold change /veh IGLL1 (11728026_x_at): dose or concentration left out as unconfirmed. Conditions: MV-4-11 cells, 48 hours.

Molecules are shown by their SMILES.

As for `Nc1ncn([C@@H]2O[C@H](CO)[C@@H](O)[C@H]2O)c(=O)n1` [azacitidine], the “Fold change /veh NKD1 (11759106_at)” value is recorded as 1.33.

The record behind these values is paper PMC5218480 (PLoS ONE, 2017).
